Assay results as given in paper PMC5939068 (Proceedings of the National Academy of Sciences of the …, 2018).

Target: 52SFK (HAdV-52 short fiber knob) (human adenovirus 52, UniProt A0MK70)
Experiment: SPR with immobilized knob
Type: binding
Conditions: oligoSia in solution

SMILES: CC(=O)N[C@H]1[C@H]([C@H](O)[C@H](O)CO)O[C@@](O[C@H](CO)[C@@H](O)[C@@H]2OC(O)(C(=O)O)C[C@H](O)[C@H]2NC(C)=O)(C(=O)O)C[C@@H]1O (stereo partly shown) [DP2, disialic acid]
- SPR with immobilized knob: the biggest increase in affinity was shown between DP2 and DP3
